In patent US20220259551A1, “METHODS OF OPTIMIZED EUGLENA FERMENTATION USING ENGINEERED TANK DESIGN” (NOBLEGEN INC., priority 2019, published 2022):

System: Euglena gracilis Z
Assay: Effect of organic acids, with or without glucose, on Euglena growth in shake flasks (Example 9)
Assay type: cell-based
Conditions: for % Increase in biomass between 48 h and 120 h / Net change in biomass: higher levels of acids (~2-5 g/L) solely or with glucose (~15 g/L); for higher biomass compared to control (glucose alone): higher levels of acids (~2-5 g/L) + glucose ~15 g/L; for higher biomass compared to control (glucose alone) / net biomass / higher biomass compared to glucose alone (control): end of 48 h; for further improvement in net biomass concentration compared to 48 h / higher acid contribution to biomass when fed along with glucose vs maximum acid alone contribution: end of 120 h; for higher acid contribution to biomass when fed along with glucose vs maximum acid alone contribution: higher acid concentrations (2-5 g/L); for higher biomass compared to glucose alone (control): lower acid supplementation (~0.0005-0.05 g/L) + glucose 15 g/L
[1] = no glucose, acid conc. 0.05 g/L, 48 h
[2] = lactic acid 0.05 g/L + glucose 15 g/L, 48 h
[3] = fumaric acid 0.0005 g/L + glucose 15 g/L, 48 h

| SMILES | % Increase in biomass between 48 h and 120 h | Net change in biomass (incubation 48 h) | Net change in biomass (incubation 120 h) | Net biomass conc. (48 h) [1] | higher biomass compared to control (glucose alone) | net biomass (~5 g/L as sole carbon source) | higher acid contribution to biomass when fed along with glucose vs maximum acid alone contribution | other results |
| --- | --- | --- | --- | --- | --- | --- | --- | --- |
| O=C[C@H](O)[C@@H](O)[C@H](O)[C@H](O)CO [Glucose (Control)] | 0.0% | 6.50 g/L | 6.50 g/L | – | – | – | – | Net biomass conc. (48 h) (Glucose conc. 15 g/L, no acid, 48 h): 6.70 g/L |
| CC(O)C(=O)O (stereo not drawn) [Lactic acid only] | 9.5% | 2.10 g/L | 2.30 g/L | 0.60 g/L | – | – | – | – |
| O=C(O)CCC(=O)O [succinate, succinic acid] | – | – | – | – | 3.1% | 2.20 g/L | – | further improvement in net biomass concentration compared to 48 h (~5 g/L as sole carbon source): 13.6% |
| CC(O)C(=O)O (stereo not drawn) [lactic acid] | – | – | – | – | 1.5% | 2.10 g/L | 5.56% | biomass yield (g)/g of carbon [2]: 1.35 g/g of carbon; biomass yield (g)/g of carbon, higher than the control [2]: ~13%; conversion efficiency [2]: 54.8%; conversion efficiency, higher than the glucose control [2]: ~8%; higher biomass compared to glucose alone (control): 13.4%; further improvement in net biomass concentration compared to 48 h (~5 g/L as sole carbon source): 9.5% |
| CC(=O)C(=O)O [Pyruvate only] | −11.1% | 0.90 g/L | 0.80 g/L | 1.00 g/L | – | – | – | – |
| O=C(O)/C=C/C(=O)O [Fumaric acid only] | 4.8% | 2.10 g/L | 2.20 g/L | – | – | – | – | Net biomass conc. (48 h) (no glucose, acid conc. 0.0005 g/L, 48 h): 0.70 g/L |
| CC(=O)C(=O)O [pyruvate, pyruvic acid] | – | – | – | – | – | – | 72.73% | net biomass (~2 g/L as sole carbon source): 0.90 g/L |
| O=C(O)CC(O)C(=O)O (stereo not drawn) [Malic acid only] | −7.1% | 1.40 g/L | 1.30 g/L | 0.60 g/L | – | – | – | – |
| O=C(O)CCC(=O)O [Succinic acid only] | 13.6% | 2.20 g/L | 2.50 g/L | 0.70 g/L | – | – | – | – |
| O=C(O)/C=C/C(=O)O [fumaric acid] | – | – | – | – | 12.3% | 2.10 g/L | 46.67% | conversion efficiency (15 g/L glucose and 2 g/L fumaric acid, 120 h): 57.4%; conversion efficiency (15 g/L glucose and 5 g/L fumaric acid, 120 h): 58.41%; biomass yield (g)/g of carbon, higher than glucose alone [3]: 8.4%; higher conversion efficiency compared to glucose alone (15 g/L) [3]: 21.9%; maximum biomass obtained (fumaric acid 2 g/L and 5 g/L): ~1.5 g/L; higher biomass compared to glucose alone (control): 7.5% |
| O=C(O)CC(O)C(=O)O (stereo not drawn) [malic acid] | – | – | – | – | 4.6% | 1.40 g/L | 63.64% | higher biomass compared to glucose alone (control): −3% |
